Results published in PMC3242598, “Phase I study of BIBF 1120 with docetaxel and prednisone in metastatic chemo-naive hormone-refractory prostate cancer patients” (British Journal of Cancer, 2011).

Test system: patients with metastatic, chemo-naive, hormone-refractory prostate cancer (HRPC)
Test: Phase I safety analysis: adverse events graded by CTCAE version 3.0
Type: in vivo, human
Conditions: for Dyspepsia: patients with drug-related AE / Dysphonia: patients with drug-related AE / Elevated ALT: patients with drug-related AE / Elevated AST: patients with drug-related AE / Elevated GGT: patients with drug-related AE / Elevated alkaline phosphatase: patients with drug-related AE / Epistasis: patients with drug-related AE / Headache: patients with drug-related AE / Hot flush: patients with drug-related AE / Mucosal inflammation: patients with drug-related AE / Muscle spasm: patients with drug-related AE / Nausea: patients with drug-related AE / Neuropathy: patients with drug-related AE / Pyrexia: patients with drug-related AE / Rash: patients with drug-related AE / Upper abdominal pain: patients with drug-related AE / Vomiting: patients with drug-related AE / Weight decrease: patients with drug-related AE / Ageusia: patients with drug-related AE / Alopecia: patients with drug-related AE / Anorexia: patients with drug-related AE / Asthenia: patients with drug-related AE / Constipation: patients with drug-related AE / Diarrhoea: patients with drug-related AE / Dysgeusia: patients with drug-related AE: all courses
Protocol: On days 2–21 (21-day cycle), patients took an oral dose of BIBF 1120 twice daily. Patients were instructed to swallow BIBF 1120 with water at the same time every day to ensure a dose interval of ∼12 h. On day 2 of treatment cycles (TCs) 1 and 2, patients only took the morning dose of BIBF 1120, omitting the evening dose to allow PK evaluation. All patients were premedicated with oral corticosteroids (dexamethasone 8 mg per os or methylprednisolone 32 mg per os, at 12 h and 1 h before docetaxel infusion) and subsequently took 5 mg prednisone oral BID throughout the trial. On day 1 of each TC, patients received an IV infusion of 75 mg m^−2 docetaxel administered over 1 h.
All patients who received at least one dose of BIBF 1120 or docetaxel were assessed during the safety analysis. Intensity of AEs was graded according to Common Terminology Criteria for Adverse Events (CTCAE) version 3.0. Objective response was defined as a PSA decline ⩾50% from the baseline value over two consecutive courses and/or tumour response according to RECIST criteria ([Therasse et al, 2000]).

[1] = 200 mg BID (n=3) + docetaxel/prednisone, all grades
[2] = 250 mg BID (n=12) + docetaxel/prednisone, Gr 3/4
[3] = 250 mg BID (n=12) + docetaxel/prednisone, all grades
[4] = Total, all dose levels (n=21) + docetaxel/prednisone, Gr 3/4
[5] = Total, all dose levels (n=21) + docetaxel/prednisone, all grades
[6] = during TC 1, all dose levels 100–250 mg BID + docetaxel/prednisone
[7] = during TC 1, all dose levels + docetaxel/prednisone

## COC(=O)c1ccc2c(c1)NC(=O)/C2=C(\Nc1ccc(N(C)C(=O)CN2CCN(C)CC2)cc1)c1ccccc1 [BIBF 1120]
[1]
  Dyspepsia: patients with drug-related AE: 0
  Dysphonia: patients with drug-related AE: 2
  Elevated ALT: patients with drug-related AE: 0
  Elevated AST: patients with drug-related AE: 0
  Elevated GGT: patients with drug-related AE: 0
  Elevated alkaline phosphatase: patients with drug-related AE: 0
  Epistasis: patients with drug-related AE: 1
  Headache: patients with drug-related AE: 0
  Hot flush: patients with drug-related AE: 1
  Mucosal inflammation: patients with drug-related AE: 0
  Muscle spasm: patients with drug-related AE: 0
  Nausea: patients with drug-related AE: 2
  Neuropathy: patients with drug-related AE: 0
  Pyrexia: patients with drug-related AE: 0
  Rash: patients with drug-related AE: 0
  Upper abdominal pain: patients with drug-related AE: 0
  Vomiting: patients with drug-related AE: 2
  Weight decrease: patients with drug-related AE: 0
200 mg BID + docetaxel/prednisone, TC 1
  Patients with grade 3 diarrhoea: One
[2]
  Ageusia: patients with drug-related AE: 0
  Alopecia: patients with drug-related AE: 0
  Anorexia: patients with drug-related AE: 0
  Asthenia: patients with drug-related AE: 0
  Constipation: patients with drug-related AE: 0
  Diarrhoea: patients with drug-related AE: 0
  Dysgeusia: patients with drug-related AE: 0
  Dyspepsia: patients with drug-related AE: 0
  Dysphonia: patients with drug-related AE: 0
  Elevated ALT: patients with drug-related AE: 2
  Elevated AST: patients with drug-related AE: 2
  Elevated GGT: patients with drug-related AE: 2
  Elevated alkaline phosphatase: patients with drug-related AE: 0
  Epistasis: patients with drug-related AE: 0
  Headache: patients with drug-related AE: 0
  Hot flush: patients with drug-related AE: 0
  Mucosal inflammation: patients with drug-related AE: 0
  Muscle spasm: patients with drug-related AE: 0
  Nausea: patients with drug-related AE: 0
  Neuropathy: patients with drug-related AE: 0
  Pyrexia: patients with drug-related AE: 0
  Rash: patients with drug-related AE: 0
  Upper abdominal pain: patients with drug-related AE: 0
  Vomiting: patients with drug-related AE: 0
  Weight decrease: patients with drug-related AE: 0
[3]
  Ageusia: patients with drug-related AE: 1
  Alopecia: patients with drug-related AE: 4
  Anorexia: patients with drug-related AE: 3
  Asthenia: patients with drug-related AE: 10
  Constipation: patients with drug-related AE: 2
  Diarrhoea: patients with drug-related AE: 8
  Dysgeusia: patients with drug-related AE: 2
  Dyspepsia: patients with drug-related AE: 1
  Dysphonia: patients with drug-related AE: 1
  Elevated ALT: patients with drug-related AE: 4
  Elevated AST: patients with drug-related AE: 3
  Elevated GGT: patients with drug-related AE: 3
  Elevated alkaline phosphatase: patients with drug-related AE: 2
  Epistasis: patients with drug-related AE: 3
  Headache: patients with drug-related AE: 0
  Hot flush: patients with drug-related AE: 1
  Mucosal inflammation: patients with drug-related AE: 2
  Muscle spasm: patients with drug-related AE: 2
  Nausea: patients with drug-related AE: 5
  Neuropathy: patients with drug-related AE: 1
  Pyrexia: patients with drug-related AE: 1
  Rash: patients with drug-related AE: 2
  Upper abdominal pain: patients with drug-related AE: 3
  Vomiting: patients with drug-related AE: 3
  Weight decrease: patients with drug-related AE: 1
250 mg BID, any TC, based on laboratory values
  Patients with CTCAE grade 3/4 liver enzyme (transaminase) elevations, of twelve: six
250 mg BID, entire treatment period
  Patients with CTCAE grade 3/4 increases in hepatic enzymes: 50%
[4]
  Ageusia: patients with drug-related AE: 0
  Alopecia: patients with drug-related AE: 0
  Anorexia: patients with drug-related AE: 0
  Asthenia: patients with drug-related AE: 0
  Constipation: patients with drug-related AE: 0
  Diarrhoea: patients with drug-related AE: 2
  Dysgeusia: patients with drug-related AE: 0
  Dyspepsia: patients with drug-related AE: 0
  Dysphonia: patients with drug-related AE: 0
  Elevated ALT: patients with drug-related AE: 2
  Elevated AST: patients with drug-related AE: 2
  Elevated GGT: patients with drug-related AE: 2
  Elevated alkaline phosphatase: patients with drug-related AE: 0
  Epistasis: patients with drug-related AE: 0
  Headache: patients with drug-related AE: 0
  Hot flush: patients with drug-related AE: 0
  Mucosal inflammation: patients with drug-related AE: 0
  Muscle spasm: patients with drug-related AE: 0
  Nausea: patients with drug-related AE: 0
  Neuropathy: patients with drug-related AE: 0
  Pyrexia: patients with drug-related AE: 0
  Rash: patients with drug-related AE: 0
  Upper abdominal pain: patients with drug-related AE: 0
  Vomiting: patients with drug-related AE: 0
  Weight decrease: patients with drug-related AE: 0
[5]
  Ageusia: patients with drug-related AE: 2
  Alopecia: patients with drug-related AE: 4
  Anorexia: patients with drug-related AE: 6
  Asthenia: patients with drug-related AE: 14
  Constipation: patients with drug-related AE: 3
  Diarrhoea: patients with drug-related AE: 13
  Dysgeusia: patients with drug-related AE: 3
  Dyspepsia: patients with drug-related AE: 2
  Dysphonia: patients with drug-related AE: 4
  Elevated ALT: patients with drug-related AE: 4
  Elevated AST: patients with drug-related AE: 3
  Elevated GGT: patients with drug-related AE: 3
  Elevated alkaline phosphatase: patients with drug-related AE: 2
  Epistasis: patients with drug-related AE: 5
  Headache: patients with drug-related AE: 2
  Hot flush: patients with drug-related AE: 2
  Mucosal inflammation: patients with drug-related AE: 2
  Muscle spasm: patients with drug-related AE: 2
  Nausea: patients with drug-related AE: 9
  Neuropathy: patients with drug-related AE: 2
  Pyrexia: patients with drug-related AE: 2
  Rash: patients with drug-related AE: 2
  Upper abdominal pain: patients with drug-related AE: 4
  Vomiting: patients with drug-related AE: 5
  Weight decrease: patients with drug-related AE: 2
All TCs and doses
  Alopecia, frequency of AE irrespective of relatedness: 23.8%
  Asthenia, frequency of AE irrespective of relatedness: 95.2%
  Diarrhoea, frequency of AE irrespective of relatedness: 85.7%
  Nausea, frequency of AE irrespective of relatedness: 28.6%
[6]
  Alopecia, frequency of drug-related AE: 23.8%
  Asthenia, frequency of drug-related AE: 61.9%
  Nausea, frequency of drug-related AE: 28.6%
  Vomiting, frequency of drug-related AE: 28.6%
[7]
  Patients with AE severity grade 1: 28.6%
  Patients with AE severity grade 2: 28.6%
  Patients with AE severity grade 3: 23.8%
  Patients with AE severity grade 4 (neutropenia only, considered related to docetaxel): 14.3%
